In the NIST ThermoML archive (doi:10.1016/j.jct.2016.03.027):
± gives the expanded uncertainty stated by the source.

Assay: wn = mass fraction of the nth substance listed
Settings: 298.15 K, 100 kPa, Liquid, Vibrating tube method

mass density (w1 = 0.1): 1026.64 ± 1.2 kg/m3
mass density (w1 = 0.2): 1056.71 ± 1.2 kg/m3
mass density (w1 = 0.3): 1087.25 ± 1.2 kg/m3
mass density (w1 = 0.4): 1118.6 ± 1.2 kg/m3
Structure (SMILES): O=C1OCCO1 [ethylene carbonate] + O
